Converted amounts (≈) assume the structure as drawn. Where two headings read alike, the source gives them in different places.
Assays:
[1] = tested on: Staph. aureus. clinical isolates (77); experiment: Antibacterial in vitro activity, MIC, clinical isolates; assay type: cell-based; settings: 77 clinical isolates
Protocol: (§1) Antibacterial in vitro activity of the novel compounds of the general formula (I) and their pharmaceutically acceptable addition salts with inorganic or organic acids on a series of standard test-microorganisms was determined in a Mueller-Hinton medium (Difco-Laboratories, Detroit, Mich.) by a conventional method of double dilution in accordance with recommendations of NCCLS (The National Committee for Clinical Laboratory Standards). Each test microorganism was inoculated to the final inoculum size of 5×10^5 cfu/ml and the incubation was carried out in an […] manner at 37° C. during 18 hours. The MIC in the liquid medium was defined as the lowest concentration of an antibacterial agent inhibiting visible growth in microdilutional containers. Control organisms were obtained from ATCC (The American Type Culture Collection). All standards were identified by a standard procedure and were storaged at −70° C.

[2] = tested on: Haemophilus influenzae clinical isolates (40); experiment: as above; assay type: cell-based; settings: 40 clinical isolates
Protocol: as §1

[3] = tested on: Enterococcus sp. clinical isolates (35); experiment: as above; assay type: cell-based; settings: 35 clinical isolates
Protocol: as §1

[4] = tested on: Streptococcus pneumoniae clinical isolates (25); experiment: as above; assay type: cell-based; settings: 25 clinical isolates
Protocol: as §1

[5] = tested on: S. epidermidis clinical isolates (20); experiment: as above; assay type: cell-based; settings: 20 clinical isolates
Protocol: as §1

[6] = tested on: S. eperidermidis ATCC 12228; experiment: Antibacterial in vitro activity, MIC by double dilution, standard strains; assay type: cell-based; settings: Mueller-Hinton medium, 37° C., 18 hours
Protocol: as §1

[7] = tested on: Escherichia coli ATCC 10536; experiment: as above; assay type: cell-based; settings: 37° C., 18 hours
Protocol: as §1

[8] = tested on: Streptococcus faecalis ATCC 8043; experiment: as above; assay type: cell-based; settings: 37° C., 18 hours
Protocol: as §1

[9] = tested on: Bacillus subtilis ATCC 6633; experiment: as above; assay type: cell-based; settings: 37° C., 18 hours
Protocol: as §1

B. cereus ATCC 11778 = experiment: as above; assay type: cell-based; settings: 37° C., 18 hours
Protocol: as §1

M. luteus ATCC 9341 = experiment: as above; assay type: cell-based; settings: 37° C., 18 hours
Protocol: as §1

S. aureus ATCC 29213 = experiment: as above; assay type: cell-based; settings: 37° C., 18 hours
Protocol: as §1

[10] = tested on: Micrococcus flavus ATCC 10240; experiment: as above; assay type: cell-based; settings: 37° C., 18 hours
Protocol: as §1

[11] = tested on: Staphylococcus aureus ATCC 6538 P; experiment: as above; assay type: cell-based; settings: 37° C., 18 hours
Protocol: as §1

[12] = rat, in vivo, po, 20 mg/kg

With CC[C@H]1OC(=O)[C@H](C)[C@@H](O[C@H]2C[C@@](C)(OC)[C@@H](O)[C@H](C)O2)[C@H](C)[C@@H](O[C@@H]2O[C@H](C)C[C@H](N(C)C)[C@H]2O)[C@](C)(O)C[C@@H](C)CN(C)[C@H](C)[C@@H](O)[C@]1(C)OC [12-O-Methyl-azithromycin] the “MIC 50%” value [1] was 0.25 µg/mL (≈ 0.328 µM), the “MIC 90%” value [1] was 1 µg/mL (≈ 1.31 µM) and the “MIC Range” value [1] was 0.12 to 2 µg/mL. For the same compound, the “MIC 50%” value [2] was 0.12 µg/mL (≈ 0.157 µM), the “MIC 90%” value [2] was 0.25 µg/mL (≈ 0.328 µM) and the “MIC Range” value [2] was 0.06 to 0.5 µg/mL. For the same compound, the “MIC 50%” value [3] was 0.5 µg/mL (≈ 0.655 µM), the “MIC 90%” value [3] was 8 µg/mL (≈ 10.5 µM) and the “MIC Range” value [3] was 0.12 to 8 µg/mL. The “MIC 50%” value [4] was 0.03 µg/mL (≈ 0.0393 µM), the “MIC 90%” value [4] was 0.12 µg/mL (≈ 0.157 µM) and the “MIC Range” value [4] was 0.03 to 0.12 µg/mL. For the same compound, the “MIC 50%” value [5] was 0.25 µg/mL (≈ 0.328 µM), the “MIC 90%” value [5] was 4 µg/mL (≈ 5.24 µM) and the “MIC Range” value [5] was 0.12 to 8 µg/mL. For the same compound, the MIC [6] was 0.03 µg/mL (≈ 0.0393 µM), the MIC ([7]; Mueller-Hinton medium) was 0.5 µg/mL (≈ 0.655 µM) and the MIC ([8]; Mueller-Hinton medium) was 0.25 µg/mL (≈ 0.328 µM). It also gave an MIC ([9]; Mueller-Hinton medium) of 1 µg/mL (≈ 1.31 µM), an MIC (B. cereus ATCC 11778; Mueller-Hinton medium) of 0.25 µg/mL (≈ 0.328 µM) and an MIC (M. luteus ATCC 9341; Mueller-Hinton medium) of 0.03 µg/mL (≈ 0.0393 µM). The MIC (S. aureus ATCC 29213; Mueller-Hinton medium) was 0.25 µg/mL (≈ 0.328 µM), the MIC ([10]; Mueller-Hinton medium) was 0.12 µg/mL (≈ 0.157 µM) and the MIC ([11]; Mueller-Hinton medium) was 0.25 µg/mL (≈ 0.328 µM). The “Cmax (maximum substance concentration in serum)” value [12] was 248.8 ng/mL, the “absorption in the serum” value [12] was “very fast absorbed” and the half-life [12] was 5.2 h. For the same compound, the “time at which the maximum substance concentration was achieved” value [12] was 2 h, the “time of secondary maximum after the application” value [12] was 4 h and the “total AUC” value [12] was 1993.4 ng·h/mL.

With CC[C@H]1OC(=O)[C@H](C)[C@@H](O[C@H]2C[C@@](C)(OC)[C@@H](O)[C@H](C)O2)[C@H](C)[C@@H](O[C@@H]2O[C@H](C)C[C@H](N(C)C)[C@H]2O)[C@](C)(O)C[C@@H](C)CN(C)[C@H](C)[C@@H](O)[C@]1(C)O [Azithromycin, 9-deoxo-9a-methyl-9a-aza-9a-homoerythromycin, reference compound] the “MIC Range” value [1] was 0.25 to 8 µg/mL, the MIC50 ([1]; Staphylococcus aureus) was 1 µg/mL (≈ 1.34 µM) and the MIC90 ([1]; Staphylococcus aureus) was 4 µg/mL (≈ 5.34 µM). The MIC50 [2] was 0.25 µg/mL (≈ 0.334 µM), the MIC90 [2] was 0.5 µg/mL (≈ 0.668 µM) and the “MIC Range” value [2] was 0.12 to 0.5 µg/mL. The MIC50 [3] was 1 µg/mL (≈ 1.34 µM), the MIC90 [3] was 16 µg/mL (≈ 21.4 µM) and the “MIC Range” value [3] was 0.25 to 16 µg/mL. For the same compound, the MIC50 [4] was 0.05 µg/mL (≈ 0.0668 µM), the MIC90 [4] was 0.12 µg/mL (≈ 0.16 µM) and the “MIC Range” value [4] was 0.03 to 0.25 µg/mL. The “MIC Range” value [5] was 0.25 to 16 µg/mL, the MIC50 ([5]; Staphylococcus epidermidis) was 0.25 µg/mL (≈ 0.334 µM) and the MIC90 ([5]; Staphylococcus epidermidis) was 8 µg/mL (≈ 10.7 µM). It also gave an MIC ([6]; read-out: MIC) of 0.5 µg/mL (≈ 0.668 µM), an MIC ([7]; ATCC10536, Mueller-Hinton medium, read-out: MIC) of 1 µg/mL (≈ 1.34 µM) and an MIC ([8]; Enterococcus faecalis, ATCC8043, Mueller-Hinton medium, read-out: MIC) of 0.5 µg/mL (≈ 0.668 µM). For the same compound, the MIC ([9]; ATCC6633, Mueller-Hinton medium, read-out: MIC) was 4 µg/mL (≈ 5.34 µM), the MIC (B. cereus ATCC 11778; Bacillus cereus, ATCC11778, Mueller-Hinton medium, read-out: MIC) was 1 µg/mL (≈ 1.34 µM) and the MIC (M. luteus ATCC 9341; Micrococcus luteus, ATCC9341, Mueller-Hinton medium, read-out: MIC) was 0.06 µg/mL (≈ 0.0801 µM). For the same compound, the MIC (S. aureus ATCC 29213; Staphylococcus aureus, ATCC29213, Mueller-Hinton medium, read-out: MIC) was 0.25 µg/mL (≈ 0.334 µM), the MIC ([10]; ATCC10240, Mueller-Hinton medium, read-out: MIC) was 0.5 µg/mL (≈ 0.668 µM) and the MIC ([11]; ATCC6538, Mueller-Hinton medium, read-out: MIC) was 1 µg/mL (≈ 1.34 µM).
